Test results from ChEMBL document CHEMBL3112489 (Bioorg Med Chem Lett, 2014).

Assay: Inhibition of Legionella pneumophila carbonic anhydrase 1 preincubated for 15 mins by stopped-flow CO2 hydrase assay

Going from `CC(=O)Nc1nnc(S(N)(=O)=O)s1` [ACETAZOLAMIDE] to `NS(=O)(=O)O` [SULFAMATE], the Ki rises from 0.095 µM to 76 µM (800-fold). The first binds more tightly here.

First: CCN(CC)C(=S)S [DITIOCARB SODIUM]
Second: S=C(S)S [SODIUM CARBONOTRITHIOATE]
The Ki of the first is 88-fold lower: 6 µM for the first, 530 µM for the second. The first binds more tightly here.

`O=[As](O)(O)c1ccccc1` [PHENYLARSONIC ACID] and `OB(O)c1ccccc1` [PHENYLBORONIC ACID] are within 1.5-fold of each other in Ki: 84 µM for the first, 65 µM for the second.

First: [N-]=[N+]=[N-] [SODIUM AZIDE]
Second: O=C([O-])O.[Na+] [SODIUM BICARBONATE]
The Ki of the first is 45-fold lower: 77 µM for the first, 3500 µM for the second.

`O=S([O-])O.[Na+]` [SODIUM BISULFITE] and `O=C([O-])[O-].[Na+].[Na+]` [SODIUM CARBONATE] are within 1.5-fold of each other in Ki: 6600 µM for the first, 4700 µM for the second.

`[Br-].[Na+]` [SODIUM BROMIDE] and `[Cl-].[Na+]` [SODIUM CHLORIDE] are within 1.5-fold of each other in Ki: 650 µM for the first, 790 µM for the second.

`N#CO` [SODIUM CYANATE] and `N=C=[Se]` [SODIUM ISOSELENOCYANATE] are within 1.5-fold of each other in Ki: 660 µM for the first, 980 µM for the second.

First: [F-].[Na+] [SODIUM FLUORIDE]
Second: [I-].[Na+] [SODIUM IODIDE]
The Ki of the first is 2.8-fold higher: 910 µM for the first, 320 µM for the second.

First: S [SODIUM HYDROSULFIDE]
Second: O=S(=O)(O)NS(=O)(=O)O [SODIUM IMINODISULFONATE]
The Ki of the first is 15-fold lower: 76 µM for the first, 1170 µM for the second. The first binds more tightly here.

Compared with `N=C=S` [SODIUM ISOTHIOCYANATE], `O=[N+]([O-])[O-].[Na+]` [SODIUM NITRATE] is 15-fold higher in Ki: 520 µM for the first, 7600 µM for the second.

`O=NO` [SODIUM NITRITE] and `O=[Se](=O)(O)O` [SODIUM SELENATE] are within 1.5-fold of each other in Ki: 7900 µM for the first, 7300 µM for the second.

First: [O-][Cl+3]([O-])([O-])O [SODIUM PERCHLORATE]
Second: O=S(=O)([O-])[O-].[Na+].[Na+] [SODIUM SULFATE ANHYDROUS]
The Ki of the first is higher: greater than 200000 µM for the first, 77900 µM for the second. The second binds more tightly here.

Compared with `O=S(=O)(O)OOS(=O)(=O)O` [SODIUM PERSULFATE], `NS(N)(=O)=O` [SULFAMIDE] is 9-fold lower in Ki: 850 µM for the first, 94 µM for the second.

Going from `O=P(O)(O)OP(=O)(O)O` [SODIUM PYROPHOSPHATE] to `O=[Te](=O)(O)O` [SODIUM TELLURATE], the Ki falls from 940 µM to 240 µM (3.9-fold).

Compared with `O=BOB(O)OB(O)OB=O` [SODIUM TETRABORATE], `F[B-](F)(F)F.[Na+]` [SODIUM TETRAFLUOROBORATE] is higher in Ki: 600 µM for the first, greater than 200000 µM for the second.

Assay: Inhibition of Legionella pneumophila carbonic anhydrase 2 preincubated for 15 mins by stopped-flow CO2 hydrase assay

First: CC(=O)Nc1nnc(S(N)(=O)=O)s1 [ACETAZOLAMIDE]
Second: NS(=O)(=O)O [SULFAMATE]
The Ki of the first is 360-fold lower: 0.036 µM for the first, 13 µM for the second.

First: CCN(CC)C(=S)S [DITIOCARB SODIUM]
Second: S=C(S)S [SODIUM CARBONOTRITHIOATE]
The Ki of the first is 310-fold lower: 2 µM for the first, 620 µM for the second. The first binds more tightly here.

`O=[As](O)(O)c1ccccc1` [PHENYLARSONIC ACID] and `OB(O)c1ccccc1` [PHENYLBORONIC ACID] are within 1.5-fold of each other in Ki: 8 µM for the first, 6 µM for the second.

First: [N-]=[N+]=[N-] [SODIUM AZIDE]
Second: O=C([O-])O.[Na+] [SODIUM BICARBONATE]
The Ki of the first is 15-fold lower: 450 µM for the first, 6600 µM for the second. The first binds more tightly here.

Compared with `O=S([O-])O.[Na+]` [SODIUM BISULFITE], `O=C([O-])[O-].[Na+].[Na+]` [SODIUM CARBONATE] is 1.5-fold lower in Ki: 7200 µM for the first, 4800 µM for the second. The second binds more tightly here.

Going from `[Br-].[Na+]` [SODIUM BROMIDE] to `[Cl-].[Na+]` [SODIUM CHLORIDE], the Ki falls from 8000 µM to 810 µM (9.9-fold).

`N#CO` [SODIUM CYANATE] and `N=C=[Se]` [SODIUM ISOSELENOCYANATE] are within 1.5-fold of each other in Ki: 960 µM for the first, 660 µM for the second.

Compared with `[F-].[Na+]` [SODIUM FLUORIDE], `[I-].[Na+]` [SODIUM IODIDE] is 77-fold higher in Ki: 770 µM for the first, 59100 µM for the second.

`S` [SODIUM HYDROSULFIDE] and `O=S(=O)(O)NS(=O)(=O)O` [SODIUM IMINODISULFONATE] are within 1.5-fold of each other in Ki: 510 µM for the first, 590 µM for the second.

Going from `N=C=S` [SODIUM ISOTHIOCYANATE] to `O=[N+]([O-])[O-].[Na+]` [SODIUM NITRATE], the Ki rises from 880 µM to 30100 µM (34-fold). The first binds more tightly here.

First: O=NO [SODIUM NITRITE]
Second: O=[Se](=O)(O)O [SODIUM SELENATE]
The Ki of the first is 8.8-fold higher: 5800 µM for the first, 660 µM for the second. The second binds more tightly here.

First: [O-][Cl+3]([O-])([O-])O [SODIUM PERCHLORATE]
Second: O=S(=O)([O-])[O-].[Na+].[Na+] [SODIUM SULFATE ANHYDROUS]
The Ki of the first is higher: greater than 200000 µM for the first, 96500 µM for the second. The second binds more tightly here.

Compared with `O=S(=O)(O)OOS(=O)(=O)O` [SODIUM PERSULFATE], `O=[Te](=O)(O)O` [SODIUM TELLURATE] is 2-fold lower in Ki: 570 µM for the first, 290 µM for the second.

First: O=P(O)(O)OP(=O)(O)O [SODIUM PYROPHOSPHATE]
Second: O=BOB(O)OB(O)OB=O [SODIUM TETRABORATE]
The Ki of the first is 1.5-fold higher: 830 µM for the first, 550 µM for the second. The second binds more tightly here.

In the case of `F[B-](F)(F)F.[Na+]` [SODIUM TETRAFLUOROBORATE], the Ki is reported as greater than 200000 µM.
